Broadly, the inhibition is the percentage by which the read-out fell short of the control. The term Ki denotes the dissociation constant of the complex between target and ligand, obtained from inhibition or displacement. Usually EC50 stands for the midpoint of the concentration-response curve.

Molecules are shown by their SMILES. A value given as a limit tells only on which side of the number the result lay.

Experiment [1] addresses T1, Cannabinoid receptor 1 (Homo sapiens, UniProt P21554). As to the kind of experiment: Displacement of [3H]rimonabant from human CB1 receptor expressed in HEK293 cells assessed as signal point inhibition at 10 uM by liquid scintillation counting. The experiment is classed as cell-based.
Experiment [2] addresses T1, Cannabinoid receptor 1. As to the kind of experiment: biochemical. The experiment is classed as cell-based, HEK293.
Experiment [3] has as its target T1, Cannabinoid receptor 1. As to the kind of experiment: Inverse agonist activity at human CB1 receptor by [35S]GTPgammaS incorporation assay relative to rimonabant. The experiment is classed as functional. Set-up: concentration or dose not given beside the values. (Binding of GTPγS marks nucleotide exchange on a G protein.)
A further experiment has as its target Cannabinoid receptor 2 (Homo sapiens, UniProt P34972). Kind of experiment: Displacement of [3H]rimonabant from human CB2 receptor expressed in HEK293 cells by liquid scintillation counting. The experiment is classed as cell-based.
Experiment [4] deals with T1, Cannabinoid receptor 1. As to the kind of experiment: Inverse agonist activity at human CB1 receptor by [35S]GTPgammaS incorporation assay. The format is functional.
The species entered for another experiment is Homo sapiens. Kind of experiment: Selectivity ratio of Ki for human CB2 receptor to Ki for human CB1 receptor.

T1 sequence (P21554 whole entry): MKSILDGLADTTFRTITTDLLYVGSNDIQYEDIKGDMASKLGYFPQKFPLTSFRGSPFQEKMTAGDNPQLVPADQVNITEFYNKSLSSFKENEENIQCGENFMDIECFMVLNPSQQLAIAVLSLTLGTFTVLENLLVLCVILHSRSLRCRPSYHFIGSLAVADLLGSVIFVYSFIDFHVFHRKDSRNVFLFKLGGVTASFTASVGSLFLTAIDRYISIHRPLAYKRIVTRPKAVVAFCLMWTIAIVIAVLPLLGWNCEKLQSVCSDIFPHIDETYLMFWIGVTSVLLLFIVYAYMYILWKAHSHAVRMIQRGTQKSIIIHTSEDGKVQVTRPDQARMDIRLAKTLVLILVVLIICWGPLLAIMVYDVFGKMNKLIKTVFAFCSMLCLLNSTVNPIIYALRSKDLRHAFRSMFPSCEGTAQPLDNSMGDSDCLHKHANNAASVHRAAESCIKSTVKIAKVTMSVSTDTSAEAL
Cannabinoid receptor 2, sequence (P34972 whole entry): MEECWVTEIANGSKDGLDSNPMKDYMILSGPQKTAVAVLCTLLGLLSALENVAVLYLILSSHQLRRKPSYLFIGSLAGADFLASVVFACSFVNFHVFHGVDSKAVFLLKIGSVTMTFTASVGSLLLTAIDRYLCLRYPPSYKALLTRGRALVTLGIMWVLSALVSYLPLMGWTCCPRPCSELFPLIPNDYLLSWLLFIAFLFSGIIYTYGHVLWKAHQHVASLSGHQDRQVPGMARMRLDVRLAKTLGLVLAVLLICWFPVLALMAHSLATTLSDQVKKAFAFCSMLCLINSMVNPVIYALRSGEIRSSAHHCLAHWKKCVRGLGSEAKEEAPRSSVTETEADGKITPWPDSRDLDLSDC

As for `Cc1ccc(Cc2nsc(N3CCCN(C(=O)Nc4c(C(C)C)cccc4C(C)C)CC3)n2)cc1`, at Cannabinoid receptor 1 [1], the inhibition came out at 77%. Moreover, the Ki at Cannabinoid receptor 1 [2] amounted to 1760 nM.
The corresponding values for `COc1ccccc1N1CCN(C(=O)C(C)Sc2nc(-c3ccccc3)cc(C(F)(F)F)n2)CC1` (configuration not stated) are 80% and 2310 nM.
On to `CC(C)NC(=O)C(C)Sc1nnc2c3ccccc3n(Cc3ccccc3)c2n1` (configuration not stated), for which the inhibition at Cannabinoid receptor 1 [1] was 86%. This compound yielded a Ki at Cannabinoid receptor 1 [2] of 2270 nM.
On to `CCOC(=O)N1CC=C2C(C1)C1(C(=O)N(Cc3ccccc3)c3ccccc31)C(C#N)=C(N)C2(C#N)C#N` (configuration not stated), for which the inhibition at Cannabinoid receptor 1 [1] turned out to be 82%. Further, the Ki at Cannabinoid receptor 1 [2] is 1090 nM.
Turning to `COc1cccc(N2C(C(C)=O)=NN(c3ccc(Cl)cc3)C2c2ccc(N3CCOCC3)cc2)c1` (configuration not stated), the Activity at Cannabinoid receptor 1 [3] is 81%. Besides, the values for the Ki on Cannabinoid receptor 2 and at Cannabinoid receptor 1 [2] were 3920 nM and 227 nM, respectively. On Cannabinoid receptor 1 [1], the inhibition came to 90%. Further, on Cannabinoid receptor 1 [4], a half-maximal response (EC50) required 600 nM. The Ratio Ki in the experiment listed under Homo sapiens stood at 17.3.
`COc1ccc(C2c3ccsc3CCN2C(=O)CN(C(=O)C2CCCCC2)C(C)C)cc1` (configuration not stated): the inhibition at Cannabinoid receptor 1 [1] turned out to be 82%. Besides, the Ki on Cannabinoid receptor 1 [2] stood at 2590 nM.
Compound `CCN(Cc1ccccc1)C(=O)c1oc2ccc(S(=O)(=O)N3CC(C)CC(C)C3)cc2c1C` (configuration not stated) yielded an Activity on Cannabinoid receptor 1 [3] of 95%. This compound came in with an EC50 at Cannabinoid receptor 1 [4] of 300 nM. Further, the Ratio Ki in the experiment listed under Homo sapiens was 33.7.
With `COc1ccc(-c2cc(C(=O)N3CCN(C(C)=O)CC3)n(-c3cccc(C)c3)n2)c(OC)c1`, the inhibition on Cannabinoid receptor 1 [1] was 77%. Also, the Ki at Cannabinoid receptor 1 [2] came to 1940 nM.
In the case of `CCOC(=O)CN1C(c2ccc(F)cc2)Nc2ccc(Br)cc2C1c1ccccc1` (configuration not stated), at Cannabinoid receptor 1 [1], the inhibition was 77%. On Cannabinoid receptor 1 [2], the Ki worked out at 273 nM.
On to `COc1ccc(C2C(C(=O)Nc3cccc(C)n3)c3ccccc3C(=O)N2C2CCCCC2)cc1` (configuration not stated), for which the inhibition at Cannabinoid receptor 1 [1] came out at 69%. The compound further came in with a Ki on Cannabinoid receptor 1 [2] of 2400 nM.
With `Cc1ccc(C(C(=O)Nc2ccc3c(c2)OCCO3)N(C)C(=O)/C=C\c2ccc3c(c2)OCO3)cc1` (configuration not stated), the inhibition at Cannabinoid receptor 1 [1] amounted to 71%. On Cannabinoid receptor 1 [2], the Ki stood at 1470 nM.
Regarding `Cc1ccc(C(=O)n2cc(/C=N/Nc3nc(N4CCOCC4)nc(N4CCOCC4)n3)c3ccccc32)cc1`, at Cannabinoid receptor 1 [1], the inhibition was 85%. In addition, the Ki on Cannabinoid receptor 1 [2] is 2300 nM.
Take `Cc1cccc(C)c1N(C(=O)c1ccccc1Cl)C(=O)C(c1ccc([N+](=O)[O-])cc1)N1CCOCC1` (configuration not stated): on Cannabinoid receptor 1 [1], the inhibition is 79%. This compound also gave a Ki on Cannabinoid receptor 1 [2] of 2780 nM.
Take `CCOC(=O)N1CCN(C(=O)c2cc(-c3ccccc3Cl)nn2-c2ccc(C)cc2C)CC1`: at Cannabinoid receptor 1 [3], the Activity came to 44%. The values for the inhibition constant (Ki) on Cannabinoid receptor 2 and at Cannabinoid receptor 1 [2] were 1070 nM and 287 nM, respectively. The inhibition at Cannabinoid receptor 1 [1] is 98%. This compound also returned an EC50 at Cannabinoid receptor 1 [4] of 200 nM. The Ratio Ki in the experiment listed under Homo sapiens came out at 3.7.
Take `CC(C(=O)N1c2ccccc2C(C)(c2ccc(Cl)cc2)CC1(C)C)N1C(=O)C2CCCCC2C1=O` (configuration not stated): the inhibition on Cannabinoid receptor 1 [1] was 73%. The compound further registered a Ki at Cannabinoid receptor 1 [2] of 520 nM.
Compound `O=C(Nc1ccccc1Oc1ccccc1)c1ccc(S(=O)(=O)N2CCc3ccccc32)cc1` gave an Activity on Cannabinoid receptor 1 [3] of 62%. Also, the Ki at Cannabinoid receptor 2 was found to be 10000 nM; at Cannabinoid receptor 1 [2] it was 256 nM. Besides, at Cannabinoid receptor 1 [1], the inhibition amounted to 82%. The same compound registered an EC50 at Cannabinoid receptor 1 [4] of 200 nM. In the experiment filed under Homo sapiens, the Ratio Ki is above 39.
Turning to `CC1CN(c2ncnc(NC(c3ccccc3)c3ccccc3)c2[N+](=O)[O-])CC(C)O1` (configuration not stated), the inhibition on Cannabinoid receptor 1 [1] was determined as 67%. On Cannabinoid receptor 1 [2], this compound gave a Ki of 1180 nM.
In the case of `CS/C(=N\S(=O)(=O)c1ccc(-n2nc(C(F)(F)F)cc2-c2cccs2)cc1)N1CCCC1`, on Cannabinoid receptor 1 [1], the inhibition stood at 63%. This compound also registered a Ki at Cannabinoid receptor 1 [2] of 1000 nM.
The corresponding values for `Cc1cc(-c2ccccc2)n(Cc2ccccc2)c(=O)c1S(=O)(=O)c1ccccc1` are 73% and 2720 nM.
On to `COc1ccccc1NC(=O)C(C)Sc1nc(-c2ccc(C)cc2)nc2c1COC(C)(C)C2` (configuration not stated), for which, at Cannabinoid receptor 1 [3], the Activity amounted to 91%. The Ki at Cannabinoid receptor 2 came to 10000 nM; on Cannabinoid receptor 1 [2] it was 264 nM. In addition, on Cannabinoid receptor 1 [1], the inhibition was determined as 85%. The compound further gave an EC50 on Cannabinoid receptor 1 [4] of 1200 nM. The Ratio Ki in the experiment listed under Homo sapiens is above 37.9.
Turning to `CC(C)(C)c1ccc(C(=O)N2C(C(=O)NCc3ccccn3)CSC2c2cccc(F)c2)cc1` (configuration not stated), the inhibition at Cannabinoid receptor 1 [1] worked out at 62%. Affinity at Cannabinoid receptor 1 [2] was put at a Ki of 7490 nM.
For the compound `Cc1ccc(C2c3cccn3-c3ccccc3N2C(=O)CN(C(=O)C2CCCC2)C2CC2)cc1` (configuration not stated), the Activity on Cannabinoid receptor 1 [3] was 91%. Further, the Ki came out at 10000 nM on Cannabinoid receptor 2 and 520 nM on Cannabinoid receptor 1 [2]. Also, the inhibition at Cannabinoid receptor 1 [1] was 78%. This compound also displayed an EC50 on Cannabinoid receptor 1 [4] of 1100 nM. The Ratio Ki in the experiment filed under Homo sapiens was above 19.2.
With `O=C(c1ccc(-n2cnnn2)cc1)N(c1ccccc1)C1(C(=O)Nc2ccccc2)CCCCC1`, the inhibition on Cannabinoid receptor 1 [1] came out at 71%. In addition, at Cannabinoid receptor 1 [2], the Ki worked out at 1050 nM.
As for `CC(C)CN(CC(=O)N1CCc2sccc2C1c1ccc(F)cc1)C(=O)c1ccco1` (configuration not stated), the Activity on Cannabinoid receptor 1 [3] came to 105%. Moreover, the inhibition at Cannabinoid receptor 1 [1] is 89%. Moreover, on Cannabinoid receptor 1 [4], it took 4400 nM to reach a half-maximal effect (EC50). This compound gave a Ki at Cannabinoid receptor 1 [2] of 875 nM.
For the compound `COc1ccc(C2c3cccn3-c3ccccc3N2C(=O)CN(C(=O)NC(C)(C)C)C(C)C)cc1` (configuration not stated), the Activity at Cannabinoid receptor 1 [3] amounted to 103%. Besides, the results for the Ki on Cannabinoid receptor 2 and at Cannabinoid receptor 1 [2] were 4950 nM and 308 nM, respectively. The inhibition at Cannabinoid receptor 1 [1] came to 95%. Further, the EC50 on Cannabinoid receptor 1 [4] turned out to be 1500 nM. In the experiment filed under Homo sapiens, the Ratio Ki is 16.1.
Consider `CCCNC(=O)N1CCN(c2nc(Cc3ccccc3)c3c(c2C#N)CC(C)(C)OC3)CC1`, for which the inhibition on Cannabinoid receptor 1 [1] is 81%. Also, affinity at Cannabinoid receptor 1 [2] was put at a Ki of 3950 nM.
As for `CC1CC(C)CN(S(=O)(=O)c2ccc(F)c(C(=O)NC(c3ccccc3)c3ccccc3)c2)C1` (configuration not stated), at Cannabinoid receptor 1 [3], the Activity was 50%. The results for the Ki at Cannabinoid receptor 2 and on Cannabinoid receptor 1 [2] were 10000 nM and 611 nM, respectively. In addition, on Cannabinoid receptor 1 [1], the inhibition turned out to be 77%. The EC50 at Cannabinoid receptor 1 [4] worked out at 500 nM. The Ratio Ki in the experiment listed under Homo sapiens was above 16.4.
At Cannabinoid receptor 1 [3], `Cc1cc(C)c(OCC(=O)Nc2sc3c(c2C(=O)NC2CCS(=O)(=O)C2)CCCC3)c(C)c1` (configuration not stated) had an Activity of 60%. The Ki on Cannabinoid receptor 2 was 58 nM; on Cannabinoid receptor 1 [2], 325 nM. For the same compound, at Cannabinoid receptor 1 [1], the inhibition is 94%. Besides, it took 400 nM to reach a half-maximal effect on Cannabinoid receptor 1 [4] (EC50). The Ratio Ki in the experiment filed under Homo sapiens worked out at 0.2.
In turn, `CC(C)N(CC(=O)N1c2ccccc2-n2cccc2C1c1ccc(F)cc1)C(=O)CC(C)(C)C` (configuration not stated) displayed an Activity on Cannabinoid receptor 1 [3] of 77%. In addition, the inhibition on Cannabinoid receptor 1 [1] came out at 64%. At Cannabinoid receptor 1 [4], a half-maximal response (EC50) required 1100 nM. On Cannabinoid receptor 1 [2], this compound returned a Ki of 1030 nM.
As to `COC(=O)c1c(C)oc(C)c1S(=O)(=O)N1CCN(C2c3ccccc3-c3ccccc32)CC1`, at Cannabinoid receptor 1 [1], the inhibition was 87%. Moreover, on Cannabinoid receptor 1 [2], the affinity, expressed as Ki, was 1610 nM.
